{
  "source": "patent US20230172959A1",
  "about": "“USE OF NMN FOR THE PREVENTION AND/OR TREATMENT OF A BACK PAIN AND CORRESPONDING COMPOSITIONS” (NUVAMID SA, priority 2020, published 2023)",
  "format_in_all_cases": "in vivo, human",
  "key": {"[1]": {"assay": "Adverse side effects and allergies reported by the volunteers", "settings": "10 days topical use of 5% NMN emulsion, 12 volunteers", "protocol": "A satisfaction study was carried out on a group of 12 volunteers, aged 42±8 years, consisting of seven female and five male subjects. The main objective of this study was to evaluate the level of satisfaction of subjects with regard to the evolution of their lumbalgia (low back pain) during the morning and/or evening application of a composition according to the invention containing 5% by weight of NMN.\nA composition in the form of an oil-in-water emulsion comprising 5% NMN was formulated as follows, the ingredients being designated by their INCI (International Nomenclature of Cosmetic Ingredients) name: Aqua, Paraffinum liquidum, Cetyl alcohol, Glyceryl stearate, Benzyl PCA, Ceteareth-20, Ceteareth-12, Cetyl Palmitate, Cocoglycerides, Cetearyl alcohol, Sodium Hydroxide, NMN. The composition was prepared according to any method well known to the person skilled in the art.\nOver the subsequent 9 day period, each evening the subjects fill in the Visual Analogue Scale of pain, ensuring any discomfort or problems arising or the taking of analgesics are reported therein."}, "chronic lumbalgia [2]": {"test_system": "chronic lumbalgia", "assay": "Perceived improvement (PGI-I index) and satisfaction with evolution of lumbalgia (Likert scale)", "settings": "end of the study", "protocol": "A satisfaction study was carried out on a group of 12 volunteers, aged 42±8 years, consisting of seven female and five male subjects. The main objective of this study was to evaluate the level of satisfaction of subjects with regard to the evolution of their lumbalgia (low back pain) during the morning and/or evening application of a composition according to the invention containing 5% by weight of NMN. A composition in the form of an oil-in-water emulsion comprising 5% NMN was formulated as follows, the ingredients being designated by their INCI (International Nomenclature of Cosmetic Ingredients) name: Aqua, Paraffinum liquidum, Cetyl alcohol, Glyceryl stearate, Benzyl PCA, Ceteareth-20, Ceteareth-12, Cetyl Palmitate, Cocoglycerides, Cetearyl alcohol, Sodium Hydroxide, NMN. The composition was prepared according to any method well known to the person skilled in the art. On day 10, the volunteers complete the WOMAC questionnaire, the Lequesne questionnaire, the Visual Analogue Scale (VAS) of pain, indicating the perceived improvement in lumbalgia pain relief as measured by the PGI-I index (abbreviation for “Patient Global Improvement Impression”), satisfaction with regard to evolution of the lumbalgia on a Likert scale as well as the ease of application and penetration of the composition, assessment of the texture and odour of the composition, likelihood of re-use thereof in the event of recurrence of a similar pain, and recommendation of use to third parties presenting with pain of similar nature. The PGI-I index is an index that serves as means for evaluating the response to a treatment. The Likert scale is a psychometric tool used for measuring an attitude in individuals, which consists of one or more statements for which the individual responding expresses their degree of agreement or disagreement."}, "chronic lumbalgia [3]": {"test_system": "chronic lumbalgia", "assay": "Lequesne algo-functional index, 10-day satisfaction study in 12 volunteers", "protocol": "As for the Lequesne score, it varies from 0 to 22: the higher the score, the more extreme or even intolerable the impairment. From 8 to 10, the impairment is qualified as significant and for an index score greater than or equal to 10, the impairment is qualified as very significant. A satisfaction study was carried out on a group of 12 volunteers, aged 42±8 years, consisting of seven female and five male subjects. The main objective of this study was to evaluate the level of satisfaction of subjects with regard to the evolution of their lumbalgia (low back pain) during the morning and/or evening application of a composition according to the invention containing 5% by weight of NMN. A composition in the form of an oil-in-water emulsion comprising 5% NMN was formulated as follows, the ingredients being designated by their INCI (International Nomenclature of Cosmetic Ingredients) name: Aqua, Paraffinum liquidum, Cetyl alcohol, Glyceryl stearate, Benzyl PCA, Ceteareth-20, Ceteareth-12, Cetyl Palmitate, Cocoglycerides, Cetearyl alcohol, Sodium Hydroxide, NMN. The composition was prepared according to any method well known to the person skilled in the art. The study took place over 10 days. At baseline, ie upon inclusion (DO), the selected subjects provide their demographic characteristics (age, weight, height), indicate the period of persistence and intensity of the pain on a Visual Analogue Scale, and complete the WOMAC and Lequesne questionnaires. […] On day 10, the volunteers complete the WOMAC questionnaire, the Lequesne questionnaire, the Visual Analogue Scale (VAS) of pain, indicating the perceived improvement in lumbalgia pain relief as measured by the PGI-I index (abbreviation for “Patient Global Improvement Impression”), satisfaction with regard to evolution of the lumbalgia on a Likert scale as well as the ease of application and penetration of the composition, assessment of the texture and odour of the composition, likelihood of re-use thereof in the event of recurrence of a similar pain, and recommendation of use to third parties presenting with pain of similar nature. […]"}},
  "data": [
    {"smiles": "NC(=O)c1ccc[n+]([C@@H]2O[C@H](COP(=O)([O-])O)[C@@H](O)[C@H]2O)c1", "note": "(stereo in doubt) [NMN, nicotinamide mononucleotide]", "values": [
      {"measurement": "adverse side effects", "setting": "[1]", "value": "neither any adverse side effects"},
      {"measurement": "allergies", "setting": "[1]", "value": "nor developed any allergies"},
      {"measurement": "subjects with improvement characterised as 'considerable'", "setting": "chronic lumbalgia [2]; 3 subjects", "value": 25.0, "unit": "%"},
      {"measurement": "subjects with improvement characterised as 'a lot'", "setting": "chronic lumbalgia [2]; 4 subjects", "value": 33.3, "unit": "%"},
      {"measurement": "subjects with improvement characterised as 'slight'", "setting": "chronic lumbalgia [2]; 4 subjects", "value": 33.3, "unit": "%"},
      {"measurement": "subjects who experienced improvement", "setting": "chronic lumbalgia [2]; 12 subjects", "value": 91.7, "unit": "%"},
      {"measurement": "participants satisfied with the evolution of their chronic lumbalgia", "setting": "chronic lumbalgia [2]; Likert scale", "value": 91.7, "unit": "%"},
      {"measurement": "participants very satisfied with the evolution of their chronic lumbalgia", "setting": "chronic lumbalgia [2]; Likert scale", "value": 33.3, "unit": "%"},
      {"measurement": "reduction in the Lequesne score", "setting": "chronic lumbalgia [3]; baseline to study endpoint", "value": 38.8, "unit": "%"},
      {"measurement": "subjects with no impairment or only a modest or slight impairment (Lequesne)", "setting": "chronic lumbalgia [3]; end of the study", "value": 83.4, "unit": "%"},
      {"measurement": "Lequesne algo-functional score", "setting": "chronic lumbalgia [3]; study endpoint (day 10), baseline 8.3±2.5, p<0.001, 5% NMN emulsion topical", "value": "5.3±3.8"}
    ]}
  ]
}
